The source of these data is PMC3820767, “Turning Defense into Offense: Defensin Mimetics as Novel Antibiotics Targeting Lipid II” (PLoS Pathogens, 2013).

Where two headings read alike, the source gives them in different places.

The subject of one series is Caco-2. Kind of series: Cytotoxicity by MTT assay. Format: cell-based, human. In general terms: Tetrazolium dyes change colour on reduction, which living cells bring about.
The nature of series [1]: Surface Plasmon Resonance binding to immobilized 3-Lipid II. Particulars: SPR; for Binding on Lipid II?: Table S3, initial determination at 10 µM. How it is done:
Surface Plasmon Resonance binding experiments were carried out on a BIAcore T100 system (BIAcore Inc., Piscataway, NY) at 25°C. The assay buffer was 10 mM HEPES, 150 mM NaCl, 0.05% surfactant P20, pH 7.4 (±3 mM EDTA) supplemented with 10% DMSO. […] For initial determination of binding, defensin mimetics were introduced into the flow-cells (30 µl/min) in the running buffer at 10 µM. Resonance signals were corrected for nonspecific binding by subtracting the background of the control flow-cell. After each analysis, the sensor chip surfaces were regenerated with 50 mM NaOH for 30 s at a flow rate 100 µl/min, and equilibrated with the buffer prior to next injection. For binding kinetics studies, binding isotherms were analyzed with manufacturer-supplied software for BIAcore T100.

Series [2] relates to Staphylococcus aureus ATCC 29213. Kind of series: Antibacterial killing, 96-well turbidimetric (modified vCC) assay. Format: cell-based. Particulars: Table S3; concentration at which 100% killing occurred, no bacterial regrowth; No = not active. On the procedure: (§1) The antibacterial activity of defensin mimetics against Staphylococcus aureus ATCC 29213 and Escherichia coli 25922 was carried out in a 96-well turbidimetric assay essentially as described previously with the following modifications: bacteria were exposed for 30 min to compounds in 10 mM phosphate buffer containing 5% DMSO prior to addition of 2× Muller-Hinton medium. Bacterial growth was monitored for 12 hours and data were analyzed as described. Determination of MICs was performed by Micromyx, LLC (Kalamazoo, Michigan) according to CLSI standards.

The subject of series [3] is Escherichia coli ATCC 25922. Described as above. The class given is cell-based. Particulars: Table S3; concentration at which 100% killing occurred, no bacterial regrowth; No = not active. How it is done:
as §1

Turning to `Cc1cc2ccccc2n1C=CC1=[N+](C)c2ccccc2C1(C)C` [4431/1, 1,3,3-trimethyl-2-(2-(2-methyl-1H-indol-1-yl)vinyl)-3H-1λ5-indole], in the series on Caco-2, the “cytotoxic for Caco II (C50% survival)” value is given as “No”. The “Binding on Lipid II?” value in series [1] was “No”. Besides, the “active against S.aureus (IC100%)” value in series [2] stood at 250 µM. In addition, the “active against E.coli (IC100%)” value in series [3] is “No”.

On to `CN(C)c1ccc(C(c2ccc(N(C)C)cc2)C(O)c2ccccc2)cc1` (stereo not drawn) [35487/2, 2,2-bis(4-(dimethylamino)phenyl)-1-phenylethanol], for which the “cytotoxic for Caco II (C50% survival)” value in the series on Caco-2 is “No”. The “Binding on Lipid II?” value in series [1] was “No”. The “active against S.aureus (IC100%)” value in series [2] is on record as “No”. Also, in series [3], the “active against E.coli (IC100%)” value is listed as “No”.

Molecule `CN(C)c1ccc(C2C=C(c3ccccc3)Oc3ccccc32)cc1` (stereo not drawn) [55870/1, N,N-dimethyl-4-(2-phenyl-4H-chromen-4-yl)aniline] came in with an IC50 in the series with Caco-2 of 25.9 µM. Also, the “Binding on Lipid II?” value in series [1] was “Yes”. The “active against S.aureus (IC100%)” value in series [2] is 250 µM. The “active against E.coli (IC100%)” value in series [3] was “No”.

`CCN1C(=CC(C)=Cc2sc3ccccc3[n+]2CC)Sc2ccccc21` [96932/4, 3-ethyl-2-(3-(3-ethyl-1,3-benzothiazol-2(3H)-ylidene)-2-methyl-1-propenyl)-1,3λ5-benzothiazole] came in with an IC50 with Caco-2 of 19 µM. Further, the “Binding on Lipid II?” value in series [1] is “No”. Further, in series [2], the “active against S.aureus (IC100%)” value is reported as 15,6 µM. The “active against E.coli (IC100%)” value in series [3] turned out to be 15.625 µM.

As to `OC(c1cccc2ccccc12)c1c2ccccc2cc2ccccc12` (stereo not drawn) [179415/1, 9-anthryl(1-naphthyl)methanol], the “cytotoxic for Caco II (C50% survival)” value in the series on Caco-2 (Table S3, No = not cytotoxic) is given as “No”. Further, the “Binding on Lipid II?” value in series [1] is “Yes”. Further, the “active against S.aureus (IC100%)” value in series [2] is recorded as 3,9 µM. For the same molecule, the “active against E.coli (IC100%)” value in series [3] is “No”.

`CCN1C(=CC(C)=Cc2sc3ccc4ccccc4c3[n+]2CC)Sc2ccc3ccccc3c21` [290437/2, 1-ethyl-2-(3-(1-ethylnaphtho[1,2-d][1,3]thiazol-2(1H)-ylidene)-2-methyl-1-propenyl)-1λ5-naphtho[1,2-d][1,3]thiazole] showed an IC50 in the series on Caco-2 of 2.2 µM. For the same molecule, in series [1], the “Binding on Lipid II?” value is on record as “No”.

With `Cc1cc(C2c3ccccc3-c3ccccc32)cc(C)c1O` [610995/1, 4-(9H-fluoren-9-yl)-2,6-dimethylphenol], the IC50 with Caco-2 stood at 9.2 µM. Moreover, the “Binding on Lipid II?” value in series [1] is “Yes”. In series [2], the “active against S.aureus (IC100%)” value was 125 µM. In series [3], the “active against E.coli (IC100%)” value is given as “No”.

On to `OCC(CO)C1c2cccc3ccc4cccc1c4c23` [625586/1, 2-(4H-cyclopenta[def]phenanthren-4-yl)-1,3-propanediol], for which the IC50 in the series on Caco-2 is 83.8 µM. Further, in series [1], the “Binding on Lipid II?” value is given as “No”. Also, the “active against S.aureus (IC100%)” value in series [2] is “No”. Further, the “active against E.coli (IC100%)” value in series [3] is on record as “No”.

`COc1ccc(C=C[c+]2cc(-c3ccccc3)cc(-c3ccccc3)o2)cc1` [BAS00138032, 2-[2-(4-Methoxy-phenyl)-vinyl]-4,6-diphenyl-pyranylium]: the “cytotoxic for Caco II (C50% survival)” value in the series on Caco-2 was “No”. Further, the “Binding on Lipid II?” value in series [1] was “No”. Besides, the “active against S.aureus (IC100%)” value in series [2] is “No”. Also, in series [3], the “active against E.coli (IC100%)” value was “No”.

Consider `CC(C)(C)c1csc(N2N=C(c3ccccc3)C(=NNc3ccccc3)C2=O)n1` [BAS00691248, 2-(4-tert-Butyl-thiazol-2-yl)-5-phenyl-4-(phenyl-hydrazono)-2,4-dihydro-pyrazol-3-one], for which the “cytotoxic for Caco II (C50% survival)” value in the series on Caco-2 is “No”. Moreover, the “Binding on Lipid II?” value in series [1] was “No”. Besides, the “active against S.aureus (IC100%)” value in series [2] is listed as “No”. In series [3], the “active against E.coli (IC100%)” value was “No”.

`CCN(CC)CCCN1CN(CCCN(CC)CC)CN(CCCN(CC)CC)C1` [Compound 000A-0859, (3-{3,5-bis[3-(diethylamino)propyl]-1,3,5-triazinan-1-yl}propyl)diethylamine] gave an IC50 in the series on Caco-2 of 419 µM. Also, the “Binding on Lipid II?” value in series [1] is on record as “Yes”. For the same molecule, the “active against S.aureus (IC100%)” value in series [2] came to 500 µM. Also, the “active against E.coli (IC100%)” value in series [3] was 500 µM.

With `OCCSc1c(F)c(SCCO)c(SCCO)c(F)c1SCCO` [Compound 0438-0367, 2-({2,5-difluoro-3,4,6-tris[(2-hydroxyethyl)sulfanyl]phenyl}sulfanyl)ethan-1-ol], the “cytotoxic for Caco II (C50% survival)” value in the series on Caco-2 is reported as “No”. Moreover, the “Binding on Lipid II?” value in series [1] is “No”. For the same molecule, the “active against S.aureus (IC100%)” value in series [2] was “No”. Further, the “active against E.coli (IC100%)” value in series [3] is given as “No”.

Turning to `c1ccc(-c2nc(N(c3ccccc3)c3ccccc3)s[n+]2-c2ccccc2)cc1` [Compound 1492-0330, 5-(diphenylamino)-2,3-diphenyl-1,2$l^5,4-thiadiazol-2-ylium], the “Binding on Lipid II?” value in series [1] is given as “Yes”.

Turning to `CN1/C(=C/C=C2/SC(=S)N(c3ccccc3)C2=O)C(C)(C)c2ccccc21` [Compound 2101-0102, (5E)-3-phenyl-2-sulfanylidene-5-{2-[(2E)-1,3,3-trimethyl-2,3-dihydro-1H-indol-2-ylidene]ethylidene}-1,3-thiazolidin-4-one], the “cytotoxic for Caco II (C50% survival)” value in the series with Caco-2 is recorded as “No”. Moreover, the “active against S.aureus (IC100%)” value in series [2] is “No”.

Turning to `Cc1cc2c(cc1C)CSC(c1ccc(O)cc1)SC2` [Compound 2729-1114, 4-(7,8-dimethyl-3,5-dihydro-1H-2,4-benzodithiepin-3-yl)phenol], the IC50 in the series with Caco-2 (Table S3, No = not cytotoxic, read-out: cytotoxic for Caco II (C50% survival)) came to 119 µM. The “Binding on Lipid II?” value in series [1] is listed as “No”. Further, the “active against S.aureus (IC100%)” value in series [2] is on record as “No”. In series [3], the “active against E.coli (IC100%)” value was “No”.

In the case of `CN(C)c1ccc(C=C2C=C(c3ccccc3)OC(c3ccccc3)=C2)cc1` [Compound 3377-0105, 4-[(2,6-diphenyl-4H-pyran-4-ylidene)methyl]-N,N-dimethylaniline], the IC50 in the series on Caco-2 stood at 100 µM. Moreover, the “Binding on Lipid II?” value in series [1] is reported as “No”. Further, the “active against S.aureus (IC100%)” value in series [2] is given as 500 µM. In addition, the “active against E.coli (IC100%)” value in series [3] is on record as “No”.

Turning to `CCC[N+](CC#CCO)(CC#Cc1ccccc1)CCC` [Compound 4636-0141, (4-hydroxybut-2-yn-1-yl)(3-phenylprop-2-yn-1-yl)dipropylazanium], in the series with Caco-2, the “cytotoxic for Caco II (C50% survival)” value is reported as “No”. Also, the “Binding on Lipid II?” value in series [1] is “No”. For the same molecule, the “active against S.aureus (IC100%)” value in series [2] is given as “No”. The “active against E.coli (IC100%)” value in series [3] is given as “No”.

For the molecule `CCN1C(=O)C(c2ccc(O)cc2)(c2ccc(O)cc2)c2ccccc21` [Compound 4896-3423, 1-ethyl-3,3-bis(4-hydroxyphenyl)-2,3-dihydro-1H-indol-2-one], in the series on Caco-2, the IC50 worked out at 72.1 µM. In addition, the “active against S.aureus (IC100%)” value in series [2] is “No”.

As to `Fc1ccccc1CN1CCC(N2CCN(c3ccccc3)CC2)CC1` [Compound 5607-0206, 1-{1-[(2-fluorophenyl)methyl]piperidin-4-yl}-4-phenylpiperazine], in the series on Caco-2 (Table S3, No = not cytotoxic), the “cytotoxic for Caco II (C50% survival)” value is listed as “No”. In addition, the “Binding on Lipid II?” value in series [1] was “No”. For the same molecule, in series [2], the “active against S.aureus (IC100%)” value is listed as “No”. In addition, the “active against E.coli (IC100%)” value in series [3] is “No”.

On to `O=Cc1ccc2c(c1)C1c3ccccc3C2c2ccccc21` [Compound 5100004, pentacyclo[6.6.6.0^{2,7}.0^{9,14}.0^{15,20}]icosa-2,4,6,9,11,13,15,17,19-nonaene-4-carbaldehyde], for which the “cytotoxic for Caco II (C50% survival)” value in the series with Caco-2 is on record as “No”. The “Binding on Lipid II?” value in series [1] is given as “No”. Moreover, the “active against S.aureus (IC100%)” value in series [2] is given as “No”. Further, in series [3], the “active against E.coli (IC100%)” value is reported as “No”.

Take `OCc1ccc2c(c1)C1c3ccccc3C2c2ccccc21` [Compound 5100015, pentacyclo[6.6.6.0~2,7~.0~9,14~.0~15,20~]icosa-2,4,6,9,11,13,15,17,19-nonaen-4-ylmethanol]: the IC50 in the series with Caco-2 came to 68 µM. Moreover, in series [1], the “Binding on Lipid II?” value was “No”. Besides, the “active against S.aureus (IC100%)” value in series [2] was found to be 500 µM. For the same molecule, the “active against E.coli (IC100%)” value in series [3] is listed as “No”.

As for `CC[n+]1c(/C=C/C=C2C=C(/C=C/N(C(C)=O)c3ccccc3)CC(C)(C)C/2)sc2ccccc21.[I-]` [Compound 5119716, 2-[(1E)-3-[(1E)-5,5-dimethyl-3-[(E)-2-(N-phenylacetamido)ethenyl]cyclohex-2-en-1-ylidene]prop-1-en-1-yl]-3-ethyl-1,3-benzothiazol-3-ium iodide], the IC50 in the series with Caco-2 stood at 52.7 µM. For the same molecule, the “Binding on Lipid II?” value in series [1] is recorded as “No”. The “active against S.aureus (IC100%)” value in series [2] is reported as 125 µM. For the same molecule, in series [3], the “active against E.coli (IC100%)” value is on record as “No”.

In turn, `Cc1cc(C2(c3ccc(O)c(C)c3)C(=O)N(Cc3ccccc3)c3ccccc32)ccc1O` [Compound 5142587, 1-benzyl-3,3-bis(4-hydroxy-3-methylphenyl)-2,3-dihydro-1H-indol-2-one] yielded an IC50 in the series on Caco-2 of 4.4 µM. For the same molecule, in series [1], the “Binding on Lipid II?” value is listed as “No”. For the same molecule, the “active against S.aureus (IC100%)” value in series [2] is on record as 15,625 µM. In addition, the “active against E.coli (IC100%)” value in series [3] was “No”.

In the case of “HNP-1 R24A: single alanine mutant of HNP-1, Arg24 replaced by alanine”, in series [1] (10 µM peptide, 40 RUs 3-Lipid II), the “binding to Lipid II compared to wild-type HNP-1” value is “maintained significant binding”.
